This passage reports IC50 results from patent publication US12404295B2, “(Hetero)aryl-methyl-thio-beta-D-galactopyranoside derivatives” (Idorsia Pharmaceuticals Ltd, priority 2019, dated 2025).

Read-outs that look alike come from different tables or passages of the source.

One experiment addresses human Gal-3 (hGal-3) (Homo sapiens (Human), UniProt P17931). In words: competitive binding assay: biotinylated hGal-3 binding to microplate-adsorbed asialofetuin (ASF). The gist of the method:
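Serially diluted compounds compete with biotinylated hGal-3 binding to adsorbed asialofetuin (3 hours, 4° C). After washing, streptavidin-peroxidase at 80 ng/mL for 1 hour at 4° C, with ABTS colour read-out. IC50 values are averaged over repeated runs.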

For the next experiment, the target named is human Gal-1 (hGal-1) (Homo sapiens (Human), UniProt P09382). As to the kind of experiment: competitive binding assay: biotinylated hGal-1 binding to microplate-adsorbed asialofetuin (ASF). As to conditions: Table 15; read-out: IC50 (Galectin-1 inhibition). The gist of the method:
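Spectrophotometric competition readout: after compound and biotinylated hGal-1 (300-1000 ng/mL) sit 3 h at 4° C on adsorbed asialofetuin, streptavidin-peroxidase (1 h, 4° C) and ABTS reveal residual binding. Reported IC50 values are means of repeat runs.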

Setting [1] is: Gal-3 inhibition, binding of biotinylated hGal-3 to ASF, mean values, read-out: IC50.
Setting [2] is: Table 5, read-out: IC50 (Gal-3 inhibition).
[3] abbreviates: Table 11, read-out: IC50 (Gal-3 inhibition).
[4] abbreviates: Table 9, 2-OMe-Gal inhibitors, read-out: IC50 (Gal-3 inhibition).

Sequence of human Gal-1 (hGal-1) (P09382 whole entry): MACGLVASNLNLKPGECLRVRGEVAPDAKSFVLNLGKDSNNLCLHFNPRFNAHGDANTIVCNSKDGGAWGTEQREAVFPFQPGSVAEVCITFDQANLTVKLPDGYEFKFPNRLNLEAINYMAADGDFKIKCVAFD
Sequence of human Gal-3 (hGal-3) (P17931 whole entry): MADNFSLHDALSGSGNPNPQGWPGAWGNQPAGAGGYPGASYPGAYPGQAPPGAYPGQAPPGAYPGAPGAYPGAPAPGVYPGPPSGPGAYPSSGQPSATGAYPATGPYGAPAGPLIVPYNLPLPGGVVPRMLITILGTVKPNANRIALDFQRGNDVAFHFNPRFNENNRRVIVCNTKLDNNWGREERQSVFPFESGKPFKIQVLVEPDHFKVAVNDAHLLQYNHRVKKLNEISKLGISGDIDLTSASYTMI

With `OC[C@H]1O[C@@H](S[C@@H](c2ncccc2C(F)(F)F)C2(O)CCCC2)[C@H](O)[C@@H](n2cc(-c3cc(F)c(F)c(F)c3)nn2)[C@H]1O` [Example 2.38.125S., (2S,3R,4S,5R,6R)-2-(((S)-(1-Hydroxycyclopentyl)(3-(trifluoromethyl)pyridin-2-yl)methyl)thio)-6-(hydroxymethyl)-4-(4-(3,4,5-trifluorophenyl)-1H-1,2,3-triazol-1-yl)tetrahydro-2H-pyran-3,5-diol], the IC50 at human Gal-3 (hGal-3) (setting [1]) was 5620 nM; at human Gal-1 (hGal-1), 15100 nM.

As to “(2S,3R,4S,5R,6R)-2-(((R)-((S)-4-Hydroxy-2,2-dimethyltetrahydro-2H-pyran-4-yl)(2-(trifluoromethyl)phenyl)methyl)thio)-6-(hydroxymethyl)-4-(4-(3,4,5-trifluorophenyl)-1H-1,2,3-triazol-1-yl)tetrahydro-2H-pyran-3,5-diol [Example 2.43.102RS.]”, the values for the half-maximal inhibitory concentration (IC50) on human Gal-3 (hGal-3) (setting [2]) and on human Gal-1 (hGal-1) were 40 nM and 800 nM, respectively.

For `CCc1c(C(S[C@@H]2O[C@H](CO)[C@H](O)[C@H](n3cc(-c4cc(F)c(F)c(F)c4)nn3)[C@H]2O)C2(O)CCC(F)(F)CC2)noc1C1CC1` (stereo partly drawn) [Example 2.44.130., (2S,3R,4S,5R,6R)-2-(((5-Cyclopropyl-4-ethylisoxazol-3-yl)(4,4-difluoro-1-hydroxycyclohexyl)methyl)thio)-6-(hydroxymethyl)-4-(4-(3,4,5-trifluorophenyl)-1H-1,2,3-triazol-1-yl)tetrahydro-2H-pyran-3,5-diol], the IC50 on human Gal-3 (hGal-3) (setting [1]) worked out at 60 nM; at human Gal-1 (hGal-1) it was 130 nM.

For the compound `CS(=O)(=O)N1CCC(O)([C@@H](S[C@@H]2O[C@H](CO)[C@H](O)[C@H](n3cc(-c4cc(F)c(F)c(F)c4)nn3)[C@H]2O)c2ccccc2C(F)(F)F)CC1` [Example 2.47.112S., (2S,3R,4S,5R,6R)-2-(((S)-(4-Hydroxy-1-(methylsulfonyl)piperidin-4-yl)(2-(trifluoromethyl)phenyl)methyl)thio)-6-(hydroxymethyl)-4-(4-(3,4,5-trifluorophenyl)-1H-1,2,3-triazol-1-yl)tetrahydro-2H-pyran-3,5-diol], the values for the IC50 on human Gal-3 (hGal-3) (setting [1]) and on human Gal-1 (hGal-1) were 2820 nM and 17500 nM, respectively.

As to “(2S,3R,4S,5R,6R)-2-(((S)-(4,4-Difluoro-1-hydroxycyclohexyl)(2-(trifluoromethyl)phenyl)methyl)thio)-6-(hydroxymethyl)-4-(4-(3,4,5-trifluorophenyl)-1H-1,2,3-triazol-1-yl)tetrahydro-2H-pyran-3,5-diol [Example 2.44.112S.]”, the half-maximal inhibitory concentration (IC50) on human Gal-3 (hGal-3) (setting [2]) worked out at 19500 nM; on human Gal-1 (hGal-1), 17600 nM.

For `Cc1conc1[C@H](S[C@@H]1O[C@H](CO)[C@H](O)[C@H](n2cc(-c3cc(F)c(F)c(F)c3)nn2)[C@H]1O)C(C)(C)O` [Example 2.31.120S., (2S,3R,4S,5R,6R)-2-(((S)-2-Hydroxy-2-methyl-1-(4-methylisoxazol-3-yl)propyl)thio)-6-(hydroxymethyl)-4-(4-(3,4,5-trifluorophenyl)-1H-1,2,3-triazol-1-yl)tetrahydro-2H-pyran-3,5-diol], the IC50 on human Gal-3 (hGal-3) (setting [1]) is 12400 nM; on human Gal-1 (hGal-1), 61300 nM.

As to `CCc1cccnc1C(S[C@@H]1O[C@H](CO)[C@H](O)[C@H](n2cc(-c3cc(F)c(F)c(F)c3)nn2)[C@H]1OC)C1(O)CCC(F)(F)CC1` (stereo partly drawn) [Example 2.44.142.I., (2R,3R,4S,5R,6S)-6-(((4,4-Difluoro-1-hydroxycyclohexyl)(3-ethylpyridin-2-yl)methyl)thio)-2-(hydroxymethyl)-5-methoxy-4-(4-(3,4,5-trifluorophenyl)-1H-1,2,3-triazol-1-yl)tetrahydro-2H-pyran-3-ol], the IC50 at human Gal-3 (hGal-3) (setting [3]) was 50 nM; on human Gal-1 (hGal-1), 190 nM.

As for `CO[C@@H]1[C@@H](n2cc(-c3cc(F)c(Cl)c(Cl)c3)nn2)[C@@H](O)[C@@H](CO)O[C@H]1SC(c1ncccc1C)C1(O)CCC(F)(F)CC1` (stereo partly drawn) [Example 17.44.126.I., (2R,3R,4S,5R,6S)-4-(4-(3,4-Dichloro-5-fluorophenyl)-1H-1,2,3-triazol-1-yl)-6-(((4,4-difluoro-1-hydroxycyclohexyl)(3-methylpyridin-2-yl)methyl)thio)-2-(hydroxymethyl)-5-methoxytetrahydro-2H-pyran-3-ol], the concentration for half-maximal inhibition (IC50) on human Gal-3 (hGal-3) (Table 14, read-out: IC50 (Gal-3 inhibition)) amounted to 140 nM; on human Gal-1 (hGal-1), 1680 nM.

For the compound `CN1CCC(O)([C@H](S[C@@H]2O[C@H](CO)[C@H](O)[C@H](n3cc(-c4cc(F)c(F)c(F)c4)nn3)[C@H]2O)c2ccccc2C(F)(F)F)CC1` [Example 2.40.112R., (2S,3R,4S,5R,6R)-2-(((R)-(4-Hydroxy-1-methylpiperidin-4-yl)(2-(trifluoromethyl)phenyl)methyl)thio)-6-(hydroxymethyl)-4-(4-(3,4,5-trifluorophenyl)-1H-1,2,3-triazol-1-yl)tetrahydro-2H-pyran-3,5-diol], the IC50 at human Gal-3 (hGal-3) (setting [2]) was determined as 60 nM; at human Gal-1 (hGal-1), 150 nM.

For the compound `COC(=O)N1CCC(O)([C@@H](S[C@@H]2O[C@H](CO)[C@H](O)[C@H](n3cc(-c4cc(F)c(F)c(F)c4)nn3)[C@H]2O)c2ccccc2C(F)(F)F)CC1` [Example 2.50.112S., Methyl 4-((S)-(((2S,3R,4S,5R,6R)-3,5-dihydroxy-6-(hydroxymethyl)-4-(4-(3,4,5-trifluorophenyl)-1H-1,2,3-triazol-1-yl)tetrahydro-2H-pyran-2-yl)thio)(2-(trifluoromethyl)phenyl)methyl)-4-hydroxypiperidine-1-carboxylate], the half-inhibitory concentration (IC50) on human Gal-3 (hGal-3) (setting [1]) is 7700 nM; at human Gal-1 (hGal-1) it was 15800 nM.

On to `OC[C@H]1O[C@@H](SC(c2ccccc2C(F)(F)F)C(O)c2ccccc2)[C@H](O)[C@@H](n2cc(-c3cc(F)c(F)c(F)c3)nn2)[C@H]1O` (stereo partly drawn) [Example 2.61.112., (2S,3R,4S,5R,6R)-2-((2-Hydroxy-2-phenyl-1-(2-(trifluoromethyl)phenyl)ethyl)thio)-6-(hydroxymethyl)-4-(4-(3,4,5-trifluorophenyl)-1H-1,2,3-triazol-1-yl)tetrahydro-2H-pyran-3,5-diol], for which the IC50 was 1100 nM at human Gal-3 (hGal-3) (setting [1]) and 7880 nM at human Gal-1 (hGal-1).

In the case of `CO[C@@H]1[C@@H](n2cc(-c3cc(F)c(F)c(F)c3)nn2)[C@@H](O)[C@@H](CO)O[C@H]1S[C@H](c1ncccc1C(F)(F)F)C1(O)CCCCC1` [Example 2.39.125R.I., (2R,3R,4S,5R,6S)-6-(((R)-(1-Hydroxycyclohexyl)(3-(trifluoromethyl)pyridin-2-yl)methyl)thio)-2-(hydroxymethyl)-5-methoxy-4-(4-(3,4,5-trifluorophenyl)-1H-1,2,3-triazol-1-yl)tetrahydro-2H-pyran-3-ol], the half-inhibitory concentration (IC50) at human Gal-3 (hGal-3) (setting [4]) stood at 90 nM; at human Gal-1 (hGal-1), 460 nM.

Turning to `CC(C)c1cccnc1[C@@H](S[C@@H]1O[C@H](CO)[C@H](O)[C@H](n2cc(-c3cc(F)c(F)c(F)c3)nn2)[C@H]1O)C1(O)CCC(F)(F)CC1` [Example 2.44.132R., (2S,3R,4S,5R,6R)-2-(((R)-(4,4-Difluoro-1-hydroxycyclohexyl)(3-isopropylpyridin-2-yl)methyl)thio)-6-(hydroxymethyl)-4-(4-(3,4,5-trifluorophenyl)-1H-1,2,3-triazol-1-yl)tetrahydro-2H-pyran-3,5-diol], the IC50 at human Gal-3 (hGal-3) (setting [1]) and at human Gal-1 (hGal-1) was 50 nM in each case.

As to `CO[C@@H]1[C@@H](n2cc(-c3cc(F)c(F)c(F)c3)nn2)[C@@H](O)[C@@H](CO)O[C@H]1SC(c1nccc(C(F)(F)F)c1C)C1(O)CCC(F)(F)CC1` (stereo partly drawn) [Example 2.44.147.I., (2R,3R,4S,5R,6S)-6-(((4,4-Difluoro-1-hydroxycyclohexyl)(3-methyl-4-(trifluoromethyl)pyridin-2-yl)methyl)thio)-2-(hydroxymethyl)-5-methoxy-4-(4-(3,4,5-trifluorophenyl)-1H-1,2,3-triazol-1-yl)tetrahydro-2H-pyran-3-ol], the results for the half-maximal inhibitory concentration (IC50) on human Gal-3 (hGal-3) (setting [3]) and on human Gal-1 (hGal-1) were 240 nM and 1240 nM, respectively.

`Cc1conc1[C@@H](S[C@@H]1O[C@H](CO)[C@H](O)[C@H](n2cc(-c3cc(F)c(F)c(F)c3)nn2)[C@H]1O)C1(O)CCS(=O)(=O)CC1` [Example 2.66.120R., 4-((R)-(((2S,3R,4S,5R,6R)-3,5-Dihydroxy-6-(hydroxymethyl)-4-(4-(3,4,5-trifluorophenyl)-1H-1,2,3-triazol-1-yl)tetrahydro-2H-pyran-2-yl)thio)(4-methylisoxazol-3-yl)methyl)-4-hydroxytetrahydro-2H-thiopyran 1,1-dioxide]: the IC50 on human Gal-3 (hGal-3) (setting [1]) was found to be 30 nM; on human Gal-1 (hGal-1), 70 nM.

`CO[C@@H]1[C@@H](n2cc(-c3cc(F)c(F)c(F)c3)nn2)[C@@H](O)[C@@H](CO)O[C@H]1S[C@H](c1nnccc1C)C1(O)CCC(F)(F)CC1` [Example 2.44.135R.I., (2R,3R,4S,5R,6S)-6-(((R)-(4,4-Difluoro-1-hydroxycyclohexyl)(4-methylpyridazin-3-yl)methyl)thio)-2-(hydroxymethyl)-5-methoxy-4-(4-(3,4,5-trifluorophenyl)-1H-1,2,3-triazol-1-yl)tetrahydro-2H-pyran-3-ol]: the IC50 on human Gal-3 (hGal-3) (setting [4]) was determined as 70 nM; at human Gal-1 (hGal-1), 200 nM.

As for `OC[C@H]1O[C@@H](SC(c2ncccc2C2CC2)C2(O)CCC(F)(F)CC2)[C@H](O)[C@@H](n2cc(-c3cc(F)c(F)c(F)c3)nn2)[C@H]1O` (stereo partly drawn) [Example 2.44.134., (2S,3R,4S,5R,6R)-2-(((3-Cyclopropylpyridin-2-yl)(4,4-difluoro-1-hydroxycyclohexyl)methyl)thio)-6-(hydroxymethyl)-4-(4-(3,4,5-trifluorophenyl)-1H-1,2,3-triazol-1-yl)tetrahydro-2H-pyran-3,5-diol], the IC50 at human Gal-3 (hGal-3) (setting [1]) is 70 nM; at human Gal-1 (hGal-1), 140 nM.

By IC50 is commonly meant the point on the concentration scale where inhibition reaches its midpoint.
